Literature values as cited in patent US20140135284A1, “COMPOSITION OF AQUEOUS BUFFER SOLUTION FOR THE TREATMENT OF CELLULAR ENVIRONMENT AND ION CHANNELS AND METHODS FOR USING SAME” (priority 2007, published 2014).

Test system: inflammation
Details: acid species studied, small reductions in pH

SMILES | effect on inflammation
Cl [Hydrochloric acid] | upregulated inflammation
CC(O)C(=O)O (centres unmarked) [Lactic acid] | effective anti-inflammatory
